Source: PubChem BioAssay AID1259407 (Chemical Carcinogenesis Research Information System (CCRIS), 2018)
The source made the active and inactive calls. The rule behind the calls is not given here.

Tested on: CCRIS mutagenicity, Ames/micronucleus/aberration tests
Assay: CCRIS mutagenicity studies
[1] = Test System: AMES SALMONELLA TYPHIMURIUM, Strain/Indicator: TA98, Metabolic Activation: NONE, Method: STANDARD PLATE
[2] = Test System: AMES SALMONELLA TYPHIMURIUM, Strain/Indicator: TA98, Metabolic Activation: RAT, LIVER, S-9, AROCLOR 1254, Method: STANDARD PLATE
[3] = Test System: AMES SALMONELLA TYPHIMURIUM, Strain/Indicator: TA100, Metabolic Activation: NONE, Method: STANDARD PLATE
[4] = Test System: AMES SALMONELLA TYPHIMURIUM, Strain/Indicator: TA100, Metabolic Activation: RAT, LIVER, S-9, AROCLOR 1254, Method: STANDARD PLATE
[5] = Test System: AMES SALMONELLA TYPHIMURIUM, Strain/Indicator: TA1535, Metabolic Activation: NONE, Method: STANDARD PLATE
[6] = Test System: AMES SALMONELLA TYPHIMURIUM, Strain/Indicator: TA1535, Metabolic Activation: RAT, LIVER, S-9, AROCLOR 1254, Method: STANDARD PLATE
[7] = Test System: AMES SALMONELLA TYPHIMURIUM, Strain/Indicator: TA1537, Metabolic Activation: NONE, Method: STANDARD PLATE
[8] = Test System: AMES SALMONELLA TYPHIMURIUM, Strain/Indicator: TA1537, Metabolic Activation: RAT, LIVER, S-9, AROCLOR 1254, Method: STANDARD PLATE
[9] = Test System: AMES SALMONELLA TYPHIMURIUM, Strain/Indicator: TA1538, Metabolic Activation: NONE, Method: STANDARD PLATE
[10] = Test System: AMES SALMONELLA TYPHIMURIUM, Strain/Indicator: TA1538, Metabolic Activation: RAT, LIVER, S-9, AROCLOR 1254, Method: STANDARD PLATE
[11] = Test System: AMES SALMONELLA TYPHIMURIUM, Strain/Indicator: TA98, Metabolic Activation: NONE, Method: PREINCUBATION

Structure (SMILES): CNC(=O)Oc1cccc2c1OC(C)(C)C2=O
- mutagenic call (End Point: IN VIVO MICRONUCLEUS, Test System: BONE MARROW POLYCHROMATIC ERYTHROCYTES, Species: MOUSE, Strain/Sex: KM/MALE, FEMALE, Route: IP INJECTION): inactive; negative

Structure (SMILES): C1=Cc2c(ccc3nc4ccc5ccccc5c4cc23)CC1
- mutagenic call (Test System: AMES SALMONELLA TYPHIMURIUM, Strain/Indicator: TA98, Metabolic Activation: GUINEA PIG, LIVER, S-9, 3-METHYLCHOLANTHRENE, Method: STANDARD PLATE): active; positive
- mutagenic call (Test System: AMES SALMONELLA TYPHIMURIUM, Strain/Indicator: TA100, Metabolic Activation: GUINEA PIG, LIVER, S-9, 3-METHYLCHOLANTHRENE, Method: STANDARD PLATE): active; positive

Structure (SMILES): CCN(CC)c1cc(NC(C)=O)c(N=Nc2c(Br)cc([N+](=O)[O-])cc2[N+](=O)[O-])cc1OC
- mutagenic call [1]: active; positive
- mutagenic call [2]: active; positive
- mutagenic call (Test System: AMES SALMONELLA TYPHIMURIUM, Strain/Indicator: TA98DNP6, Metabolic Activation: NONE, Method: STANDARD PLATE): inactive; negative
- mutagenic call (Test System: AMES SALMONELLA TYPHIMURIUM, Strain/Indicator: TA98DNP6, Metabolic Activation: RAT, LIVER, S-9, AROCLOR 1254, Method: STANDARD PLATE): active; positive
- mutagenic call (Test System: AMES SALMONELLA TYPHIMURIUM, Strain/Indicator: TA98NR, Metabolic Activation: NONE, Method: STANDARD PLATE): inactive; negative
- mutagenic call (Test System: AMES SALMONELLA TYPHIMURIUM, Strain/Indicator: TA98NR, Metabolic Activation: RAT, LIVER, S-9, AROCLOR 1254, Method: STANDARD PLATE): active; positive
- mutagenic call [3]: active; positive
- mutagenic call [4]: active; positive
- mutagenic call [5]: inactive; negative
- mutagenic call [6]: inactive; negative
- mutagenic call [7]: active; positive
- mutagenic call [8]: active; positive
- mutagenic call [9]: active; positive
- mutagenic call [10]: active; positive
- mutagenic call (Test System: AMES SALMONELLA TYPHIMURIUM, Strain/Indicator: YG1021, Metabolic Activation: NONE, Method: STANDARD PLATE): active; positive
- mutagenic call (Test System: AMES SALMONELLA TYPHIMURIUM, Strain/Indicator: YG1021, Metabolic Activation: RAT, LIVER, S-9, AROCLOR 1254, Method: STANDARD PLATE): active; positive
- mutagenic call (Test System: AMES SALMONELLA TYPHIMURIUM, Strain/Indicator: YG1024, Metabolic Activation: NONE, Method: STANDARD PLATE): active; positive
- mutagenic call (Test System: AMES SALMONELLA TYPHIMURIUM, Strain/Indicator: YG1024, Metabolic Activation: RAT, LIVER, S-9, AROCLOR 1254, Method: STANDARD PLATE): active; positive
- mutagenic call (Test System: AMES SALMONELLA TYPHIMURIUM, Strain/Indicator: YG1041, Metabolic Activation: NONE, Method: STANDARD PLATE): active; positive
- mutagenic call (Test System: AMES SALMONELLA TYPHIMURIUM, Strain/Indicator: YG1041, Metabolic Activation: RAT, LIVER, S-9, AROCLOR 1254, Method: STANDARD PLATE): active; positive

Structure (SMILES): O=P(O)(O)OCC(O)CO (stereo not drawn)
- mutagenic call [1]: inactive; negative
- mutagenic call [2]: inactive; negative
- mutagenic call [3]: inactive; negative
- mutagenic call [4]: inactive; negative
- mutagenic call [5]: inactive; negative
- mutagenic call [6]: inactive; negative
- mutagenic call [7]: inactive; negative
- mutagenic call [8]: inactive; negative
- mutagenic call [9]: inactive; negative
- mutagenic call [10]: inactive; negative
- mutagenic call (Test System: E. COLI, Strain/Indicator: WP2, Metabolic Activation: NONE, Method: STANDARD PLATE): inactive; negative
- mutagenic call (Test System: E. COLI, Strain/Indicator: WP2, Metabolic Activation: RAT, LIVER, S-9, AROCLOR 1254, Method: STANDARD PLATE): inactive; negative

Structure (SMILES): O=[N+]([O-])c1ccc2ccc3cc4c(c5ccc1c2c35)CCC=C4
- mutagenic call (Test System: AMES SALMONELLA TYPHIMURIUM, Strain/Indicator: TA98 (1,8-DNP6), Metabolic Activation: RAT, LIVER, S-9, AROCLOR 1254, Method: STANDARD PLATE): active; positive
- mutagenic call (Test System: AMES SALMONELLA TYPHIMURIUM, Strain/Indicator: TA98(NR), Metabolic Activation: RAT, LIVER, S-9, AROCLOR 1254, Method: STANDARD PLATE): active; positive
- mutagenic call [1]: active; positive
- mutagenic call [2]: active; positive
- mutagenic call [3]: active; positive
- mutagenic call [4]: active; positive

Structure (SMILES): CCOC(=O)c1ccc(N(O)C=O)cc1
- mutagenic call [1]: inactive; negative
- mutagenic call [2]: inactive; negative
- mutagenic call [3]: inactive; negative
- mutagenic call [4]: inactive; negative

Structure (SMILES): Cc1cccc(C(=O)Cl)c1
- mutagenic call [11]: inactive; negative
- mutagenic call (Test System: AMES SALMONELLA TYPHIMURIUM, Strain/Indicator: TA98, Metabolic Activation: RAT LIVER S-9, PCB, Method: PREINCUBATION): inactive; negative
- mutagenic call (Test System: AMES SALMONELLA TYPHIMURIUM, Strain/Indicator: TA100, Metabolic Activation: NONE, Method: PREINCUBATION): inactive; negative
- mutagenic call (Test System: AMES SALMONELLA TYPHIMURIUM, Strain/Indicator: TA100, Metabolic Activation: RAT LIVER S-9, PCB, Method: PREINCUBATION): active; positive
- mutagenic call (Test System: AMES SALMONELLA TYPHIMURIUM, Strain/Indicator: TA104, Metabolic Activation: NONE, Method: PREINCUBATION): active; positive
- mutagenic call (Test System: AMES SALMONELLA TYPHIMURIUM, Strain/Indicator: TA104, Metabolic Activation: RAT LIVER S-9, PCB, Method: PREINCUBATION): active; positive
- mutagenic call (Test System: E.COLI, Strain/Indicator: WP2 UVRA, Metabolic Activation: NONE, Method: PREINCUBATION): active; positive
- mutagenic call (Test System: E.COLI, Strain/Indicator: WP2 UVRA, Metabolic Activation: RAT LIVER S-9, PCB, Method: PREINCUBATION): active; positive

Structure (SMILES): c1ccc2c(c1)-c1ccccc1C1NC21 (stereo not drawn)
- mutagenic call [1]: active; positive
- mutagenic call [7]: active; positive
- mutagenic call (Test System: CHINESE HAMSTER V-79, Strain/Indicator: V-79/6-THIOGUANINE, Metabolic Activation: NONE, Method: STANDARD PLATE): active; positive

Structure (SMILES): Clc1ccc(-c2ccccc2)cc1
- mutagenic call (End Point: In vitro micronucleus, Test System: Chinese hamster lung fibroblasts (V79 cells), Metabolic Activation: None): inactive; negative
- mutagenic call (End Point: In vivo mutagenicity, Test System: Lung, Species: Rat, Strain/Sex: Big Blue/male, Route: Intraperitoneal): inactive; negative (2-fold increase in mutant frequency for 4-chlorobiphenyl and its metab
- mutagenic call (Test System: Chinese hamster lung fibroblasts, Strain/Indicator: V79 (HPRT)/6-thioguanine, Metabolic Activation: None, Method: Standard plate): inactive; negative. study examines mutagenicity of metabolites synthesized in lab and iden

Structure (SMILES): CCCCOC(=O)C=Cc1ccc([N+](=O)[O-])o1
- mutagenic call [11]: active; positive

Structure (SMILES): O[C@H]1C=Cc2ccc3c(sc4ccccc43)c2[C@@H]1O
- mutagenic call (Test System: AMES SALMONELLA TYPHIMURIUM, Strain/Indicator: TA100, Metabolic Activation: RAT, LIVER, S-9, AROCLOR 1254, Method: PREINCUBATION): inactive; negative

Structure (SMILES): CC(=O)CCN(C)N=O
- mutagenic call (Test System: CHINESE HAMSTER V-79, Strain/Indicator: V-79/OUABAIN, Metabolic Activation: HAMSTER, HEPATOCYTES, Method: CELL-MEDIATED): active; positive

Structure (SMILES): Nc1cccc2ncc(F)cc12
- mutagenic call (Test System: AMES SALMONELLA TYPHIMURIUM, Strain/Indicator: TA100, Metabolic Activation: RAT, LIVER, S-9, PHENOBARBITAL AND 5,6-BENZOFLAVONE, Method: PREINCUBATION): active; positive
